The results in this text go back to patent US5326770A, “Monoamine oxidase-B (MAO-B) inhibitory 5-substituted 2,4-thiazolidinediones useful in treating memory disorders of mammals” (priority 1992, dated 1994).

One may read the IC50 as the concentration needed to halve the response being measured. A lower IC50 goes with greater potency in that assay. By ED50 is commonly meant the dose that gives a 50% effect, or the effect in half of the subjects.

For one assay, the target named is T1, MAO-B (Rattus norvegicus, UniProt P19643).
T1 construct: Both Forms of Monoamine Oxidase in the Rat Brain; from tissue
T1 sequence (P19643 1-520): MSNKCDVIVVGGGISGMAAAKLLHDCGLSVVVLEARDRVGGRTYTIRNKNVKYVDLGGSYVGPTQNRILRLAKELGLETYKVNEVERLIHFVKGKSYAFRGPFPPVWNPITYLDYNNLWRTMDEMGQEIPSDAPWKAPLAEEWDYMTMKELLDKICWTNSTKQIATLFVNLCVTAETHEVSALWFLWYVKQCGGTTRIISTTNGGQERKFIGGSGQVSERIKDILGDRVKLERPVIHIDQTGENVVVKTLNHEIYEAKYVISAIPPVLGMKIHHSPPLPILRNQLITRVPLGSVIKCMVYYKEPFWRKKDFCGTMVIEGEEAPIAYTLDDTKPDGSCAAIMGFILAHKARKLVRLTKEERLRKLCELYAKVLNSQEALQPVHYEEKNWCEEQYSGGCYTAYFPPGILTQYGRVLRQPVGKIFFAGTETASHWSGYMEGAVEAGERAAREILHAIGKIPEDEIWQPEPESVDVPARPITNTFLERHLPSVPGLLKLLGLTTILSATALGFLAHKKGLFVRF
Nature of the assay: Monoamine oxidase-B (MAO-B) inhibition assay. The class given is biochemical. As to conditions: for IC50: Table II; for Ratio A/B: ratio of MAO-A IC50 to MAO-B IC50.

Another assay has as its target T2, MAO-A (Rattus norvegicus, UniProt P21396).
T2 construct: Both Forms of Monoamine Oxidase in the Rat Brain; from tissue
T2 sequence (P21396 1-526): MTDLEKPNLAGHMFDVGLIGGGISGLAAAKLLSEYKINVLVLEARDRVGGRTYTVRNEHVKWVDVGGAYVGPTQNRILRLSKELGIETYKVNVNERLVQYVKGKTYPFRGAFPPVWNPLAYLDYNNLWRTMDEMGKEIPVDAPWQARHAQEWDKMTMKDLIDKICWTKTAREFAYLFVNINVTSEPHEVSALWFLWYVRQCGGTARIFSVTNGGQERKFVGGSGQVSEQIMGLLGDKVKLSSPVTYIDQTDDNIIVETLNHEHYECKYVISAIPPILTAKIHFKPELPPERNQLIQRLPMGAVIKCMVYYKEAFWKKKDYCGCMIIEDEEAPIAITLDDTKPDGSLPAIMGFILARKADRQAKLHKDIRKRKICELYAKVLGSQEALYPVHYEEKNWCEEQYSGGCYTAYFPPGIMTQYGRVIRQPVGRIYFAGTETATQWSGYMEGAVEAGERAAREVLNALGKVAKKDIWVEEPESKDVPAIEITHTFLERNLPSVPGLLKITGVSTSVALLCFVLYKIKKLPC
Nature of the assay: Monoamine oxidase-A (MAO-A) inhibition assay. In kind it is biochemical. As to conditions: Table II.

A further assay is described as follows: AMPT test (ED50). In kind it is in vivo. As to conditions: Table II; method not described.

SMILES strings stand for the structures. Some results are limits rather than exact numbers.

Consider `O=C1NC(=O)C(=Cc2cccc(OCc3ccccc3)c2)S1` [Example 1, 5-[3-(Phenylmethoxy)phenylmethyl-ene]-2,4-thiazolidinedione], for which the half-maximal inhibitory concentration (IC50) at MAO-B and at MAO-A was 100 µM each time. Moreover, the “Ratio A/B” value on MAO-B is 1.
Consider `N#CCCCN1C(=O)SC(=Cc2cccc(OCc3ccccc3)c2)C1=O` [Example 2, 2,4-Dioxo-5-[3-(phenylmethoxy)-phenylmethylene]-4-thiazolidinebutanenitrile], for which the IC50 against MAO-B is 0.1 µM; against MAO-A, > 5000 µM. Moreover, the “Ratio A/B” value at MAO-B is recorded as > 50000.
As for `N#CCCCCN1C(=O)SC(=Cc2cccc(OCc3ccccc3)c2)C1=O` [Example 3], on MAO-B, the half-maximal inhibitory concentration (IC50) was determined as 0.7 µM and the “Ratio A/B” value is given as > 1428. For the same compound, the 50% inhibitory concentration (IC50) against MAO-A is > 1000 µM.
Turning to `O=C1NC(=O)C(=Cc2ccc(OCCc3ccccc3)cc2)S1` [Example 4, 5-[4-(2-Phenylethoxy)phenylmethylene]-2,4-thiazolidinedione], the figures for the IC50 at MAO-B and against MAO-A were 0.1 µM and 30 µM, respectively. Further, the “Ratio A/B” value on MAO-B is > 300.
With `N#CCN1C(=O)SC(=Cc2ccc(OCCc3ccccc3)cc2)C1=O` [Example 5, 2,4-Dioxo-5-[4-(2-phenylethoxy)phenylmethylene]-3-thiazolidineacetonitrile], the IC50 on MAO-B was 2 µM; on MAO-A it was 30 µM. Further, on MAO-B, the “Ratio A/B” value was determined as 15.
Regarding `CCCCCCOc1ccc(CC2SC(=O)NC2=O)cc1` (stereo not shown) [Example 6, 5-[(4-Hexyloxyphenyl)methyl]-2,4-thiazolidinedione], at MAO-B, 0.1 µM corresponded to half-maximal inhibition (IC50) and the “Ratio A/B” value is recorded as 100. Moreover, at MAO-A, the IC50 was 10 µM. In the assay “AMPT test (ED50)”, it took a dose of 6.71 mg/kg to reach the 50% effect level (ED50).
Take `O=C1NC(=O)C(Cc2ccc(OCC34CC5CC(CC(C5)C3)C4)cc2)S1` (stereo not shown) [Example 7, 5-[4-(3-Adamantylmethoxy)phenylmethyl]-2,4-thiazolidinedione]: the concentration for half-maximal inhibition (IC50) against MAO-B came to 0.1 µM; against MAO-A, 30 µM. The “Ratio A/B” value on MAO-B was 300.
As for `O=C1NC(=O)C(=Cc2ccc(OCc3cccc(Cl)c3)cc2)S1` [Example 8, 5-{4-[(3-Chlorophenyl)methoxy]phenylmethylene}-2,4-thiazolidinedione], on MAO-B, it took 30 µM to reach half-maximal inhibition (IC50) and the “Ratio A/B” value is listed as > 3. The IC50 on MAO-A is > 100 µM.
Turning to `N#CCCCN1C(=O)SC(=Cc2ccc(OCc3cccc(Cl)c3)cc2)C1=O` [Example 9], the values for the half-maximal inhibitory concentration (IC50) at MAO-B and against MAO-A were 100 µM and 30 µM, respectively. Besides, at MAO-B, the “Ratio A/B” value is recorded as < 1.
